# Experimental data taken from PubChem BioAssay AID256 (DTP/NCI, 2004).
# Where “and” joins values, the source holds several entries; their conditions need not be identical. Identical values can stand only once. Inconclusive results and toxic doses are left out.
# System: CD2F1 mice, L1210 leukemia ip, survival T/C
# Test: NCI In Vivo Anticancer Drug Screen. Data for tumor model L1210 Leukemia (intraperitoneal) in CD2F1 (CDF1) mice
# Conditions: endpoint: mean survival time, higher = longer survival
# Outline: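 Ratio T/C, where T is the treated-group value and C the vehicle-dosed control value, from mice implanted with a transplantable tumor.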
# [1] = dose: 12.5 mg/kg/injection, schedule: Q01DX005 (ip), vehicle: distilled water + Tween-80
# [2] = dose: 25.0 mg/kg/injection, schedule: Q01DX005 (ip), vehicle: distilled water + Tween-80
# [3] = dose: 100.0 mg/kg/injection, schedule: Q01DX005 (ip), vehicle: distilled water + Tween-80
# [4] = dose: 200.0 mg/kg/injection, schedule: Q04DX003 (ip), vehicle: saline with Tween-80
# [5] = dose: 400.0 mg/kg/injection, schedule: Q04DX003 (ip), vehicle: saline with Tween-80
# [6] = dose: 100.0 mg/kg/injection, schedule: Q01DX009 (ip), vehicle: saline with Tween-80
# [7] = dose: 200.0 mg/kg/injection, schedule: Q01DX009 (ip), vehicle: saline with Tween-80
# [8] = dose: 400.0 mg/kg/injection, schedule: Q01DX009 (ip), vehicle: saline with Tween-80
# [9] = dose: 25.0 mg/kg/injection, schedule: Q01DX009 (ip), vehicle: saline with Tween-80
# [10] = dose: 50.0 mg/kg/injection, schedule: Q01DX009 (ip), vehicle: saline with Tween-80
# [11] = dose: 100.0 mg/kg/injection, schedule: Q04DX003 (ip), vehicle: saline with Tween-80
# [12] = dose: 100.0 mg/kg/injection, schedule: Q01DX001 (ip), vehicle: saline with Tween-80
# [13] = dose: 200.0 mg/kg/injection, schedule: Q01DX001 (ip), vehicle: saline with Tween-80
# [14] = dose: 400.0 mg/kg/injection, schedule: Q01DX001 (ip), vehicle: saline with Tween-80
# [15] = dose: 100.0 mg/kg/injection, schedule: Q04DX002 (ip), vehicle: saline with Tween-80
# [16] = dose: 50.0 mg/kg/injection, schedule: Q04DX003 (ip), vehicle: saline with Tween-80
smiles,measurement,setting,value
COC1OC(CO)C(n2cnc3c2c(=O)n(C)c(=O)n3C)C=C1NC(C)=O (stereo not given),T/C,[1],100 % of control
same,T/C,"dose: 12.5 mg/kg/injection, schedule: Q01DX005 (ip), vehicle: water",88 % of control
same,T/C,[2],96 % of control
same,T/C,"dose: 25.0 mg/kg/injection, schedule: Q01DX005 (ip), vehicle: water",96 % of control
same,T/C,"dose: 50.0 mg/kg/injection, schedule: Q01DX005 (ip), vehicle: water",92 % of control
same,T/C,[3],92 % of control
same,T/C,"dose: 100.0 mg/kg/injection, schedule: Q01DX005 (ip), vehicle: water",103 % of control
same,T/C,"dose: 200.0 mg/kg/injection, schedule: Q01DX005 (ip), vehicle: distilled water + Tween-80",100 % of control
same,T/C,"dose: 200.0 mg/kg/injection, schedule: Q01DX005 (ip), vehicle: water",96 % of control
N#C/C(=C\c1ccc(-c2ccccc2)cc1)c1ccccc1,T/C,[4],86 % of control
same,T/C,[5],95 % of control
CCOC(=O)Nc1cc(NC(=O)OCC)cc([N+](=O)[O-])c1,T/C,[6],98 % of control
same,T/C,[7],98 % of control
same,T/C,[8],106 % of control
O=S(=O)(O)C1CCC[N-]C1.O=S(=O)(O)C1CCC[N-]C1.[Cl][Pt+2]([Cl])([Cl])[Cl] (stereo not given),T/C,"dose: 12.5 mg/kg/injection, schedule: Q01DX009 (ip), vehicle: water",102 % of control
same,T/C,"dose: 25.0 mg/kg/injection, schedule: Q01DX009 (ip), vehicle: water",102 % of control
same,T/C,"dose: 50.0 mg/kg/injection, schedule: Q01DX009 (ip), vehicle: water",105 % of control
same,T/C,"dose: 100.0 mg/kg/injection, schedule: Q01DX009 (ip), vehicle: water",110 % of control
CC12CCC(C/C1=N\O)C2(C)C (stereo not given),T/C,"dose: 12.5 mg/kg/injection, schedule: Q01DX009 (ip), vehicle: saline with Tween-80",106 % of control
same,T/C,[9],97 % of control
same,T/C,[10],102 % of control
CN1C(C)(C)CC(CN2c3ccccc3Sc3ccccc32)C1(C)C (stereo not given),T/C,[11],97 % of control
same,T/C,[4],104 % of control
OC(CCC(O)c1ccccc1)c1ccccc1 (stereo not given),T/C,"dose: 75.0 mg/kg/injection, schedule: Q01DX001 (ip), vehicle: saline sonified",98 % of control
same,T/C,"dose: 150.0 mg/kg/injection, schedule: Q01DX001 (ip), vehicle: saline sonified",96 % of control
same,T/C,"dose: 300.0 mg/kg/injection, schedule: Q01DX001 (ip), vehicle: saline sonified",94 % of control
O=C(O)CCCCCCCCC(=O)c1ccccc1,T/C,[11],97 % of control
same,T/C,[4],95 % of control
same,T/C,[5],88 % of control
COCC/C(COC)=N/N,T/C,[12],104 % of control
same,T/C,[6],94 % of control
same,T/C,[13],108 % of control
same,T/C,[14],108 % of control
S=C=Nc1cccc(Cl)c1,T/C,"dose: 75.0 mg/kg/injection, schedule: Q01DX009 (ip), vehicle: saline with Tween-80",95 % of control and 100 % of control
same,T/C,"dose: 150.0 mg/kg/injection, schedule: Q01DX009 (ip), vehicle: saline with Tween-80",100 % of control
same,T/C,"dose: 300.0 mg/kg/injection, schedule: Q01DX009 (ip), vehicle: saline with Tween-80",86 % of control
COC(=O)Nc1ccc(Cc2ccc(NC(=O)OC)cc2)cc1,T/C,[10],121 % of control and 104 % of control
same,T/C,[6],120 % of control and 110 % of control
same,T/C,[8],87 % of control
CCC1(C)C=CCC(C)(C)S1 (stereo not given),T/C,[15],102 % of control
same,T/C,"dose: 200.0 mg/kg/injection, schedule: Q04DX002 (ip), vehicle: saline with Tween-80",91 % of control
O=C(Cl)C1CCCCC1,T/C,[12],93 % of control
same,T/C,[13],97 % of control
same,T/C,[14],89 % of control
CCOC(=O)CNC(=O)Oc1ccc(C=O)cc1OC,T/C,[9],100 % of control
same,T/C,[10],101 % of control
same,T/C,[6],90 % of control
C[Si](C)(C)/C(=N/Nc1ccc([N+](=O)[O-])cc1[N+](=O)[O-])c1ccccc1,T/C,"dose: 100.0 mg/kg/injection, schedule: Q01DX001 (ip), vehicle: Klucel (hydroxypropylcellulose) (HPC)",97 % of control
same,T/C,"dose: 200.0 mg/kg/injection, schedule: Q01DX001 (ip), vehicle: Klucel (hydroxypropylcellulose) (HPC)",95 % of control
same,T/C,"dose: 400.0 mg/kg/injection, schedule: Q01DX001 (ip), vehicle: Klucel (hydroxypropylcellulose) (HPC)",92 % of control
O=C(CC(NC(=O)OCc1ccccc1)C(=O)OCc1ccccc1)OCc1ccccc1 (stereo not given),T/C,[6],106 % of control
same,T/C,[11],92 % of control
same,T/C,[7],98 % of control
same,T/C,[4],91 % of control
same,T/C,[8],97 % of control
same,T/C,[5],92 % of control
CC(=O)OCCN1C(=O)c2ccccc2C1=O,T/C,"dose: 100.0 mg/kg/injection, schedule: Q04DX003 (ip), vehicle: Klucel (hydroxypropylcellulose) (HPC)",97 % of control
same,T/C,"dose: 200.0 mg/kg/injection, schedule: Q04DX003 (ip), vehicle: Klucel (hydroxypropylcellulose) (HPC)",94 % of control
same,T/C,"dose: 400.0 mg/kg/injection, schedule: Q04DX003 (ip), vehicle: Klucel (hydroxypropylcellulose) (HPC)",102 % of control
CC([NH-])CC[NH-].O=S(=O)(O)O.[Pt+2] (stereo not given),T/C,"dose: 6.25 mg/kg/injection, schedule: Q04DX003 (ip), vehicle: saline",158 % of control
CC(=O)OCC1OC(n2cnc3c(NC(=O)c4ccccc4)ncnc32)C(OC(C)=O)C1OC(C)=O (stereo not given),T/C,[1],93 % of control
same,T/C,[2],100 % of control
same,T/C,"dose: 50.0 mg/kg/injection, schedule: Q01DX005 (ip), vehicle: distilled water + Tween-80",88 % of control
same,T/C,[3],94 % of control
CC1=CCS(=O)(=O)C1,T/C,"dose: 50.0 mg/kg/injection, schedule: Q01DX009 (ip), vehicle: saline",111 % of control
same,T/C,"dose: 100.0 mg/kg/injection, schedule: Q01DX009 (ip), vehicle: saline",90 % of control
CCCCSP(=O)(CCl)SCCCC,T/C,"dose: 25.0 mg/kg/injection, schedule: Q04DX002 (ip), vehicle: saline with Tween-80",93 % of control
same,T/C,"dose: 50.0 mg/kg/injection, schedule: Q04DX002 (ip), vehicle: saline with Tween-80",97 % of control
same,T/C,[15],93 % of control
CC(=O)NNC(=O)c1ccc2ccccc2n1,T/C,[10],96 % of control
same,T/C,[16],107 % of control
same,T/C,[6],104 % of control
same,T/C,[11],103 % of control
same,T/C,[7],111 % of control
same,T/C,[4],101 % of control
CC(=O)OCCN1CC1,T/C,"dose: 25.0 mg/kg/injection, schedule: Q01DX009 (ip), vehicle: saline",90 % of control
CCCCCCCCC(C)c1cccc(C(C)CCCCCCCC)c1O (stereo not given),T/C,[13],103 % of control
same,T/C,[14],103 % of control
O=C(/C=C/c1ccccc1O)/C=C/c1ccccc1O,T/C,[9],107 % of control
same,T/C,"dose: 25.0 mg/kg/injection, schedule: Q04DX003 (ip), vehicle: saline with Tween-80",111 % of control
same,T/C,[10],94 % of control
same,T/C,[16],101 % of control
same,T/C,[11],105 % of control
C=CC(=O)Nc1ccccc1,T/C,"dose: 50.0 mg/kg/injection, schedule: Q04DX002 (ip), vehicle: Klucel (hydroxypropylcellulose) (HPC)",94 % of control
same,T/C,"dose: 100.0 mg/kg/injection, schedule: Q04DX002 (ip), vehicle: Klucel (hydroxypropylcellulose) (HPC)",94 % of control
same,T/C,[11],96 % of control
same,T/C,"dose: 200.0 mg/kg/injection, schedule: Q04DX002 (ip), vehicle: Klucel (hydroxypropylcellulose) (HPC)",97 % of control
same,T/C,[4],96 % of control
same,T/C,[5],97 % of control
CN(C)[C@@H]1C(=O)C(C(=O)NCNC(Cc2ccc(N(CCCl)CCCl)cc2)C(=O)O)=C(O)[C@@]2(O)C(=O)C3=C(O)c4c(O)cccc4[C@@](C)(O)[C@H]3C[C@@H]12 (stereo not given in full),T/C,"dose: 100.0 mg/kg/injection, schedule: Q01DX001 (ip), vehicle: other",164 % of control
O=S(=O)(O)O.[Zr],T/C,"dose: 75.0 mg/kg/injection, schedule: Q01DX001 (ip), vehicle: saline",97 % of control
same,T/C,"dose: 150.0 mg/kg/injection, schedule: Q01DX001 (ip), vehicle: saline",91 % of control
CCCCCCCCCCCCCCCCCCC#N,T/C,[6],100 % of control
same,T/C,[11],92 % of control
same,T/C,[7],96 % of control
same,T/C,[4],98 % of control
same,T/C,[8],93 % of control
same,T/C,[5],95 % of control
CC1(C)C2CC=C(CC3CC(=O)OC3=O)C1C2 (stereo not given),T/C,"dose: 75.0 mg/kg/injection, schedule: Q01DX001 (ip), vehicle: other",97 % of control
same,T/C,"dose: 150.0 mg/kg/injection, schedule: Q01DX001 (ip), vehicle: other",102 % of control
same,T/C,"dose: 300.0 mg/kg/injection, schedule: Q01DX001 (ip), vehicle: other",108 % of control
F[Si](c1ccccc1)(c1cccc2ccccc12)c1cccc2ccccc12,T/C,[6],96 % of control
same,T/C,[7],100 % of control
same,T/C,[8],95 % of control
C(=C\c1ccc2ccccc2n1)/c1ccc2c(c1)OCO2,T/C,[6],96 % of control
same,T/C,[11],102 % of control
same,T/C,[7],96 % of control
same,T/C,[4],102 % of control
same,T/C,[8],95 % of control
same,T/C,[5],101 % of control
